# According to patent US11236081B2, “Crystalline salts of corydalmine” (priority 2018, dated 2022):
# Where “and” joins values, the source holds several entries; their conditions need not be identical. Identical values can stand only once.
# Experiments:
# [1] = Pharmacokinetic study: plasma concentration and plasma PK parameters after IV/PO dosing (LC-MS/MS, WinNonlin); assay type: in vivo, Male SD Rat; conditions: for concentration in plasma / concentration in plasma, Mean: male SD rat, PO 10 mg/kg (equal to freebase), vehicle 20% HP-β-CD in water (POA, freebase) or water (salts); for concentration in plasma: individual rats; for concentration in plasma, Mean: mean n=3
# From the text: Pharmacokinetic and Brain Penetration Study
# Dose formulation processing during dosing: The dose formulations will be kept at room temperature.
# Concentrations of Test Article in the plasma samples will be analyzed using a LC-MS/MS method.
# WinNonlin (Phoenix™, version 6.1) or other similar software will be used for pharmacokinetic calculations. The following pharmacokinetic parameters will be calculated, whenever possible from the plasma concentration versus time data:
# IV administration: T1/2, C0, AUClast, AUCinf, MRTinf, Cl, Vss, Number of Points for Regression.
# PO administration: T1/2, Cmax, Tmax, MRTinf, AUCinf, AUClast, F %, Number of Points for Regression.
# The pharmacokinetic data will be described using descriptive statistics such as mean, standard deviation.
# [2] = Solubility studies in water at 2 hours; assay type: physicochemical
# [3] = Dynamic vapor sorption (DVS), hygroscopicity at 25° C.; assay type: physicochemical
# Procedure: Dynamic Vapor Sorption (DVS)
# DVS was determined using DVS Intrinsic (SMS, UK). Transfer about 20 to 50 mg of the compound into a SMS dynamic vapor sorption model DVS and record the weight change with respect to a varying atmospheric humidity at 25° C.
# [4] = plasma, PO (group POE), 10 mg/kg, individual rats R40, R41, R42, 10 mg/kg
# [5] = plasma, PO (group POE), 10 mg/kg, mean of R40-R42
compound,measurement,setting,value
COc1cc2c(cc1OC)[C@@H]1Cc3ccc(O)c(OC)c3CN1CC2.O=C(O)C(=O)O [TLZ-16 oxalate],F,"[1]; PO (group POE), 10 mg/kg, individual rats R40, R41, R42, 10 mg/kg",18.5% and 28.8% and 25.3%
same,"F, Mean","[1]; PO (group POE), 10 mg/kg, mean of R40-R42",24.2%
same,concentration in plasma,[1]; 0 h,BLOQ (BLOQ = below limit of quantitation (0.2 ng/mL))
same,concentration in plasma,"[1]; 0.25 h, 10 mg/kg",302 ng/mL and 368 ng/mL and 131 ng/mL
same,"concentration in plasma, Mean",[1]; 0.25 h,267 ng/mL
same,concentration in plasma,"[1]; 0.5 h, 10 mg/kg",270 ng/mL and 309 ng/mL and 148 ng/mL
same,"concentration in plasma, Mean",[1]; 0.5 h,242 ng/mL
same,concentration in plasma,"[1]; 1 h, 10 mg/kg",143 ng/mL and 200 ng/mL and 121 ng/mL
same,"concentration in plasma, Mean",[1]; 1 h,155 ng/mL
same,concentration in plasma,"[1]; 2 h, 10 mg/kg",70.8 ng/mL and 86.0 ng/mL and 156 ng/mL
same,"concentration in plasma, Mean",[1]; 2 h,104 ng/mL
same,concentration in plasma,"[1]; 4 h, 10 mg/kg",63.1 ng/mL and 120 ng/mL and 95.0 ng/mL
same,"concentration in plasma, Mean",[1]; 4 h,92.7 ng/mL
same,concentration in plasma,"[1]; 8 h, 10 mg/kg",10.1 ng/mL and 56.8 ng/mL and 29.1 ng/mL
same,"concentration in plasma, Mean",[1]; 8 h,32.0 ng/mL
same,concentration in plasma,[1]; 24 h,BLOQ (BLOQ = below limit of quantitation (0.2 ng/mL))
same,AUCInf,[1]; [4],629 ng·h/mL and 1369 ng·h/mL and 859 ng·h/mL
same,AUClast,[1]; [4],600 ng·h/mL and 960 ng·h/mL and 756 ng·h/mL
same,AUClast/D,[1]; [4],60 kg·ng·h/mL/mg and 96 kg·ng·h/mL/mg and 75.6 kg·ng·h/mL/mg
same,AUC—% Extrap_obs,[1]; [4],4.67% and 29.8% and 12.0%
same,Cmax,[1]; [4],302 ng/mL and 368 ng/mL and 156 ng/mL
same,MRTInf_obs,[1]; [4],2.59 h and 6.60 h and 3.95 h
same,T1/2,[1]; [4],2.02 h and 4.98 h and 2.46 h
same,Tmax,[1]; [4],0.25 h (2×) and 2 h
same,"AUCInf, Mean",[1]; [5],952 ng·h/mL
same,"AUClast, Mean",[1]; [5],772 ng·h/mL
same,"AUClast/D, Mean",[1]; [5],77.2 kg·ng·h/mL/mg
same,"AUC—% Extrap_obs, Mean",[1]; [5],15.5%
same,"Cmax, Mean",[1]; [5],275 ng/mL
same,"MRTInf_obs, Mean",[1]; [5],4.38 h
same,"T1/2, Mean",[1]; [5],3.15 h
same,"Tmax, Mean",[1]; [5],0.833 h
same,solubility in water,[2],approximately 19.2 mg/mL
same,hygroscopicity (DVS),"[3]; DVS, 25° C.",slightly hygroscopic
same,solid form after DVS test,[3]; after DVS test,does not change
same,water absorbed in DVS,"[3]; at 80% RH, 25° C.",about 0.25 wt %
